In patent publication US5470830A, “Motilin-like polypeptides that inhibit gastrointestinal motor activity” (Ohmeda Pharmaceutical Products Division Inc., priority 1993, dated 1995):
Read-outs that look alike come from different tables or passages of the source. Where no end group is shown, it is not given here.

Key:
[1] = target: T1, motilin receptor (rabbit antral smooth muscle membranes) (Oryctolagus cuniculus, UniProt G1T803); test: Motilin receptor binding affinity: displacement of [125I-Tyr7,Nle13]motilin(porcine)
T1 construct: from tissue; host or cells: rabbit antral smooth muscle membranes
T1 sequence (G1T803 1-400): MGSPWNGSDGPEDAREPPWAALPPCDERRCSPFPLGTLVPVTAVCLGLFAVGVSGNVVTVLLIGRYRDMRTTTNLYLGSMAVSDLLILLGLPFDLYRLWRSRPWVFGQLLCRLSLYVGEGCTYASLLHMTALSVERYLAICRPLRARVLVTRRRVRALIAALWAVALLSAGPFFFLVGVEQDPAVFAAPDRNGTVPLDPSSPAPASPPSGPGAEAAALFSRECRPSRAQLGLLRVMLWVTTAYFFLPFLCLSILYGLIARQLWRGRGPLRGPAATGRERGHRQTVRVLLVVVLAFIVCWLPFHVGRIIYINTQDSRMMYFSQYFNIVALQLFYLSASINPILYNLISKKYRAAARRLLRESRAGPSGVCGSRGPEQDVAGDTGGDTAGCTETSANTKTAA
Experimental: The motilin receptor binding affinity of the peptides of this invention was determined by using the general procedure of Bormans, Peelers and Vantrappen, Regul. Pept., 15, 143-153 (1986). The ability of the peptides to displace [^125 I-Tyr^7,Nle^13 ]motilin(porcine) bound to rabbit antral smooth muscle membranes, was determined by testing twice, each time in duplicate, at concentrations ranging from 10^-11 to 10^-4 M. The concentration displacing 50% of the label (IC50) was determined by fitting the data to the equation describing displacement, assuming a single class of motilin receptors to which labeled and non-labeled motilin bind with equal affinity and non-cooperatively. Fitting was performed using the iterative least-squares procedure of the SAS-software package (SAS Institute, Inc., Cary, N.C., U.S.A.). […] The concentration displacing 50% of the label is expressed using its negative logarithm (pIC50).

[2] = target: segments of rabbit duodenum (Oryctolagus cuniculus, UniProt G1T803); test: Rabbit duodenal smooth muscle strip tissue bath assay (contractile response); format: cell-based; conditions: contractility; negative logarithm of dose giving 50% of maximal response to motilin; compounds tested 10^-11 to 10^-4 M
segments of rabbit duodenum, sequence (G1T803 1-400): as above
Experimental: The experimental protocol consisted of an equilibration period of 1 hour: a challenge with 10^-4 M acetylcholine followed by a wash-out period; a cumulative dose-response curve of a compound with, at the end, the addition of 10^-7 M motilin; and finally 10^-4 M acetylcholine. If the final response to 10^-4 M acetylcholine differed by more than 5% from the initial response, the results were discarded.

motilin receptor = target: T2, motilin receptor (Oryctolagus cuniculus, UniProt G1T803); test: Motilin receptor antagonism: contractile response of rabbit duodenum to motilin in presence of compound; format: cell-based
T2 construct: segments of rabbit duodenum; from tissue; host or cells: segments of rabbit duodenum
T2 sequence (G1T803 1-400): as above
Experimental: To determine motilin receptor antagonism, the contractile response of segments of rabbit duodenum to motilin was determined isotonically in the tissue bath in the presence of a fixed concentration of the compound of interest. The experimental protocol consisted of an equilibration period of 1 hour; a challenge with 10^-4 M acetylcholine followed by a wash-out period; a cumulative motilin dose-response curve in the presence of the motilin receptor antagonist; and finally a challenge with 10^-4 M acetylcholine. If the final response to 10^-4 M acetylcholine differed by more than 5% from the initial response, the results were discarded. The point corresponding to 50% of the maximal response to motilin (Emax) was determined by fitting the equation
through the data points. The dose of motilin giving 50% of the response is expressed using its negative logarithm (pEC50). Compounds of interest were tested at concentrations of 10^-8 to 10^-5 M.

[3] = negative logarithm of concentration displacing 50% of [125I-Tyr7,Nle13]motilin(porcine) from rabbit antral smooth muscle membranes, read-out: pIC50 (converted)

Substance	IC50 [1]	pEC50 [2]	IC50 [1, 3]	block of the full contractile response to motilin (motilin receptor; compound at 10^-5 M)	shift of the dose-response curve of motilin (motilin receptor; compound at 10^-6 M)
FVFIFTYGELQRLQEKERNKGQ [[Phe^3,Leu^13]pMOT, [3-Phenylalanine, 13-leucine]motilin (Porcine), Pentakis-trifluoroacetate Salt]	0.000776 µM	< 4.5	–	–	–
FVIIFTYGELQRLQEKERNKGQ [[Ile^3, Leu^13]pMOT]	0.0151 µM	< 4.5	–	–	–
H-FLFIFTYGELQRLQ-OH [[Leu^2, Phe^3, Leu^13]pMOT(1-14), H-Phe-Leu-Phe-Ile-Phe-Thr-Tyr-Gly-Glu-Leu-Gln-Arg-Leu-Gln-OH]	–	< 4.5	0.0339 µM	–	–
H-FVFIATYGELQRLQ-OH [[Phe^3, Ala^5, Leu^13]pMOT(1-14), H-Phe-Val-Phe-Ile-Ala-Thr-Tyr-Gly-Glu-Leu-Gln-Arg-Leu-Gln-OH]	–	< 4.5	0.0158 µM	–	–
H-FVFIFTFGELQRLQ-OH [[Phe^3, Phe^7, Leu^13]pMOT(1-14), H-Phe-Val-Phe-Ile-Phe-Thr-Phe-Gly-Glu-Leu-Gln-Arg-Leu-Gln-OH]	–	< 4.5	0.0309 µM	–	–
H-FVFIFTYGELARLQ-OH [[Phe^3, Ala^11, Leu^13]pMOT(1-14), H-Phe-Val-Phe-Ile-Phe-Thr-Tyr-Gly-Glu-Leu-Ala-Arg-Leu-Gln-OH]	–	< 4.5	0.0158 µM	–	–
H-FVFIFTYGELQRLK-NH2 [[Phe^3, Leu^13, Lys^14]pMOT(1-14) amide, H-Phe-Val-Phe-Ile-Phe-Thr-Tyr-Gly-Glu-Leu-Gln-Arg-Leu-Lys-NH2]	–	< 4.5	0.00158 µM	–	–
H-FVFIFTYGELQRLQ-OH [[Phe^3, Leu^13]pMOT(1-14), H-Phe-Val-Phe-Ile-Phe-Thr-Tyr-Gly-Glu-Leu-Gln-Arg-Leu-Gln-OH]	–	< 4.5	0.0162 µM	completely blocked	shifted by about one log unit
H-FVFLFTYGELQRLQ-OH [[Phe^3, Leu^4, Leu^13]pMOT(1-14), H-Phe-Val-Phe-Leu-Phe-Thr-Tyr-Gly-Glu-Leu-Gln-Arg-Leu-Gln-OH]	–	< 4.5	0.00398 µM	–	–
H-FVLIFTYGELQRLQ-OH [[Leu^3, Leu^13]pMOT(1-14), H-Phe-Val-Leu-Ile-Phe-Thr-Tyr-Gly-Glu-Leu-Gln-Arg-Leu-Gln-OH]	–	< 4.5	0.178 µM	–	–
